Experimental data: article PMC11470957, “Principles of paralog-specific targeted protein degradation engaging the C-degron E3 KLHDC2” (Nature Communications, 2024)
Several values for one entry are separate records, joined by “and”; a condition that tells them apart may be missing. Identical values can stand only once. Like-named read-outs stand apart in the source and are kept apart here.

Experiments:
[1] = molecular target: BRD2 (Homo sapiens, UniProt P25440); assay: Western blot of BRD2 levels after cellular dosing
Sequence of BRD2 (P25440 whole entry): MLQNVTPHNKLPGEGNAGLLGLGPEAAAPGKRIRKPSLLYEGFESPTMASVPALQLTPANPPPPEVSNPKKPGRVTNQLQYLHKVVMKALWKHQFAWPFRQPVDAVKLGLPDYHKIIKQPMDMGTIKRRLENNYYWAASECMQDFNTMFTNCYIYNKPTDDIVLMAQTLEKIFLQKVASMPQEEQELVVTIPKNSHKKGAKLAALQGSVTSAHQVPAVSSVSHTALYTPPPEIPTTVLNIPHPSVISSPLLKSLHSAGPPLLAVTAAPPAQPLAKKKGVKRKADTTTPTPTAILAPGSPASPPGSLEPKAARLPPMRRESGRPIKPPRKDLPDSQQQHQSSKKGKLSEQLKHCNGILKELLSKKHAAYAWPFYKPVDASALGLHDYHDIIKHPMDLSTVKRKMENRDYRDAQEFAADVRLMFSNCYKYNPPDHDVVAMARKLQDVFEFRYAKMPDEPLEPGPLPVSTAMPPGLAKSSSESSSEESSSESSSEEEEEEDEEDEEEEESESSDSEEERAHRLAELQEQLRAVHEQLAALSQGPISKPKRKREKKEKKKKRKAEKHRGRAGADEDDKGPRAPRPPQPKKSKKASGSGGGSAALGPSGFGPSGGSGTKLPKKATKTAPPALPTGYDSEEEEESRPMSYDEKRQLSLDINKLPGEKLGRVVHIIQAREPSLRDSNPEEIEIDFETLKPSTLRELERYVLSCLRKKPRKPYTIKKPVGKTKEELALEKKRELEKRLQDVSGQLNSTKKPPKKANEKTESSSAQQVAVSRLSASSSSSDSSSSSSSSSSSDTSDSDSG

[2] = molecular target: BRD4 (Homo sapiens, UniProt O60885); assay: Western blot of BRD4 levels after cellular dosing; conditions: for BRD4 level, Western blot quantification (DMSO = 100): 1 uM; for BRD4 level relative to DMSO (100%): U2OS KO/Rescue, 1µM, 24 h
[3] = molecular target: T1, KLHDC2 (Homo sapiens, UniProt Q9Y2U9); assay: Western blot of KLHDC2 levels after cellular dosing; conditions: for KLHDC2 level, Western blot quantification (DMSO = 100): 1 uM; for KLHDC2 level relative to DMSO (100%): U2OS KO/Rescue
T1 sequence (Q9Y2U9 1-406): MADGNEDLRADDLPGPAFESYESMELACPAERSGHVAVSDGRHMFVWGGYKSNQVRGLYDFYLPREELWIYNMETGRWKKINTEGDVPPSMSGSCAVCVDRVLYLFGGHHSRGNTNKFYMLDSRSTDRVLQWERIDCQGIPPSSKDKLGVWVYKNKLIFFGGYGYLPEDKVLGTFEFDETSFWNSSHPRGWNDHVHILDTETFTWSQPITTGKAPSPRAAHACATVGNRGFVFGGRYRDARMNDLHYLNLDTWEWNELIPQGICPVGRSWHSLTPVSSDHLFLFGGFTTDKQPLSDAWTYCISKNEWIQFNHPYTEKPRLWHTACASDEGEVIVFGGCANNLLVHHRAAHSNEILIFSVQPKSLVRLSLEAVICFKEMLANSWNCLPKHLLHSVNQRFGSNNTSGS

[4] = molecular target: BRD3 (Homo sapiens, UniProt Q15059); assay: Western blot of BRD3 levels after cellular dosing
Sequence of BRD3 (Q15059 whole entry): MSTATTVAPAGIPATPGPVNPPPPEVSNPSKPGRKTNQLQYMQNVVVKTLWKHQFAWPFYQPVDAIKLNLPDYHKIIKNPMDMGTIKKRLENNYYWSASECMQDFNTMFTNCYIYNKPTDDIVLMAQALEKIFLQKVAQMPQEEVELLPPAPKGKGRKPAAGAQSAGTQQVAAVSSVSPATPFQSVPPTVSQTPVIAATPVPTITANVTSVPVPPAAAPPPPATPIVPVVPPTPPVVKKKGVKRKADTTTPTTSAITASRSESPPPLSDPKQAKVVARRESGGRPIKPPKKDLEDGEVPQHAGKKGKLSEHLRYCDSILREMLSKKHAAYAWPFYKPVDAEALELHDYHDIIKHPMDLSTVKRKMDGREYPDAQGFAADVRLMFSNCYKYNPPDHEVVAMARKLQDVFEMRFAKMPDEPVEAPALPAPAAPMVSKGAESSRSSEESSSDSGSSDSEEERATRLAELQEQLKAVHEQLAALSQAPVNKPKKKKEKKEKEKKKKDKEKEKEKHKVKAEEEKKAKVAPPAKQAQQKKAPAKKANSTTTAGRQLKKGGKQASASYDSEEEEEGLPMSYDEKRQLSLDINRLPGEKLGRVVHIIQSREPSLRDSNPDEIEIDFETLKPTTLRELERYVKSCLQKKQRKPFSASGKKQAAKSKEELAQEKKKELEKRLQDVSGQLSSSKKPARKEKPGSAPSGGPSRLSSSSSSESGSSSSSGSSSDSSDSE

[5] = molecular target: T2, KLHDC2^SBD (Homo sapiens, UniProt Q9Y2U9); assay: TR-FRET assay, competition with di-Gly degron peptide binding to KLHDC2^SBD; set-up: KLHDC2^SBD (15-361) and its Avi-tagged counterpart were expressed in E. coli Rosetta2 cells; 6XHis-MBP (N, cleaved yes); made in house; host or cells: E. coli Rosetta2; conditions: inhibition of KLHDC2^SBD binding to a di-Gly degron peptide; read-out: TR-FRET IC50
T2 sequence (Q9Y2U9 15-361): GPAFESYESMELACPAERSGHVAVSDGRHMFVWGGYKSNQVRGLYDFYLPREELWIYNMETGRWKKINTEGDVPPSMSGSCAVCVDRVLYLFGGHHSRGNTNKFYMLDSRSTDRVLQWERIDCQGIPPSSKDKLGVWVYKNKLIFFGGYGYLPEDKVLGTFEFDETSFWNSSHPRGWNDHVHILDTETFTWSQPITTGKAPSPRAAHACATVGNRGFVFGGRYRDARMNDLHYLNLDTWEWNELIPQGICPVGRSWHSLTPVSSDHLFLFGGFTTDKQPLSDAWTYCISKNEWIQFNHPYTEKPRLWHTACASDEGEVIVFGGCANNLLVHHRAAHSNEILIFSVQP
Experimental: TR-FRET assays were carried out in black 384-well microtiter plates at a final volume of 20 μL per well. An assay cocktail was prepared as a mixture of 50 nM Biotin-KLHDC2 SBD, 20 nM AlexaFluor488-RIC8B peptide, 2.5 nM Tb-Streptavidin (ThermoFisher) in assay buffer (25 mM HEPES, 100 mM NaCl, 0.1% Triton X-100, 0.5 mM DTT, pH 7.5). The assay cocktail was incubated for thirty-minutes at room temperature and 20 μl distributed to assay plates. Molecules were distributed to the plates at the indicated concentration and the assay mixture was incubated for 1 h at room temperature prior to measuring the TR-FRET signal with a PHERAstar FS plate reader (BMG Labtech) equipped with modules for excitation at 337 nm and emissions at 490 and 520 nm. The integration start was set to 100 µs and the integration time to 200 µs. The number of flashes was fixed at 100. The ratio of 520/490 was used as TR-FRET signal in calculations. Assay endpoints were normalized to 100% (buffer only) and used for curve fitting in Prism.

[6] = molecular target: T2, KLHDC2^SBD; assay: Thermal shift assay (Sypro Orange) probing stabilization of KLHDC2^SBD; assay type: binding; set-up: KLHDC2^SBD (15-361) and its Avi-tagged counterpart were expressed in E. coli Rosetta2 cells; 6XHis-MBP (N, cleaved yes); made in house; host or cells: E. coli Rosetta2; conditions: KLHDC2^SBD; ligand concentration not given
Experimental: In an attempt to identify non-peptide ligands that target KLHDC2’s substrate binding domain (SBD), we developed a thermal shift assay probing for stabilization of KLHDC2^SBD upon ligand addition. […] We utilized the thermal shift assay to screen ~ 9,000 molecules from a diverse collection of lead-like molecules (Figs. 1b, S1a, Supplementary Table 1).
Experimental compounds (200 nl each) were dispensed into a 384-well PCR plate using the Labcyte ECHO 655 T. The assay solution, comprising 0.5 μM KLHDC2, 25 mM HEPES, 200 mM NaCl, and 5% Sypro Orange at pH 7.5, was added to achieve a final volume of 20 μl. Negative control wells contained only DMSO, while positive control wells contained a di-Gly substrate peptide derived from SELK. Fluorescence measurements of Sypro Orange in each sample were taken using a Quantstudio 5 or Quantstudio 6, with temperatures ranging from 23 to 75 °C at a rate of 0.05 °C/s. Data analysis involved calculating thermal stability using the Boltzmann and first derivative minima equations in Thermo Scientific Protein Thermal Shift software v1.4. The resulting data were uploaded to CDD Vault for further analysis.
The 8892-compound lead-like one library was screened for its ability to stabilize KLHDC2 using a sypro orange-based thermal stability single-point assay.
Supplementary Ta b l e 1. Small molecule screening data
Category Parameter Description
Assay Ty p e o f assay Thermal Stability Screen
Primary measurement RFU of Sypro Orange
Key reagents Sypro Orange
Assay protocol Experimental compounds (200nl each) were dispensed into […]
a 384-well PCR plate using the Labcyte ECHO 655T. The […]
assay solution, comprising 0.5µM KLHDC2, 25mM HEPES,
200mM NaCl, and 5% Sypro Orange at pH 7.5, was added […]
to achieve a final volume of 20μl. Negative control wells […]
contained only DMSO, while positive control wells […]
contained peptide sub2. Fluorescence measurements of
Sypro Orange in each sample were taken using a
Quantstudio 5 or Quantstudio 6, with temperatures ranging […]
from 23 to 75°C at a rate of 0.05°C/second. Data analysis […]
involved calculating thermal stability using the Boltzmann […]
and first derivative minima equations in Thermo Scientific
Protein Thermal Shift software v1.4. The resulting data […]
were uploaded to CDD Vault for further analysis.
Library Library size 10041
Library composition The library was curated from compounds cherry picked […]
from St. Jude’s collection, representative of 80% of the […]
entire collection based on scaffold diversity (2D Molecular […]
fingerprinting based clustering) and structural properties: […]
lipophilicity (cLogP<3), size (MW 200-300 Da), and no […]
structural alerts (PAINS).
Source The compound collection was curated from multiple […]
vendors and stored on-site.
Screen Format The assay was completed in 26 384 well plates
Concentration(s) tested Compounds were tested at 100µM, and then a 16-point […]
serial dilution was performed on select compounds.
Plate controls DMSO as negative control and peptide sub2 as positive […]
Reagent/ compound dispensing system Multidrop Combi and Labcyte ECHO 655T […]
Detection instrument and software Quant Studio 5 and Quant Studio 6 and Thermo Scientific […]
Protein Thermal Shift software v1.4
Correction factors No correction factors were applied.

[7] = U2OS, 24 h, read-out: BRD2 level relative to DMSO (100%), U2OS KO/Rescue, 1µM, 24 h, Fig 6d
[8] = U2OS, 24 h, read-out: BRD3 level relative to DMSO (100%), U2OS KO/Rescue, 1µM, 24 h, Fig 6d
[9] = U2OS, 24 h, read-out: BRD2 level relative to DMSO (100%), U2OS KO/Rescue, 1µM, 24 h, Fig 6c
[10] = U2OS, 24 h, read-out: BRD3 level relative to DMSO (100%), U2OS KO/Rescue, 1µM, 24 h, Fig 6c

In the case of `NS(=O)(=O)OC[C@@H]1C[C@@H](n2ccc3c(N[C@H]4CCc5ccccc54)ncnc32)C[C@@H]1O` [MLN4924, reference compound], the remaining activity at 1 µM [1, 7] is reported as 170 ± 21%, the “BRD4 level, Western blot quantification (DMSO = 100)” value (shortened to “BRD4 level … (DMSO = 100)”) ([2]; Fig 6d) is reported as 136.422 and 116.069 and the “BRD4 level relative to DMSO (100%)” value ([2]; Fig 6d) is reported as 130 +/- 14%. The “KLHDC2 level, Western blot quantification (DMSO = 100)” value (“KLHDC2 level … (DMSO = 100)” for short) ([3]; Fig 6d) was 3372.82 and 2800.12, the “KLHDC2 level relative to DMSO (100%)” value ([3]; 1µM, 24 h, Fig 6d) was 3090 +/- 404% and the remaining activity at 1 µM [4, 8] was 120 ± 23%.

`O=C(O)CNC(=O)Cc1csc(-c2cccc3ccncc23)n1` [SJ46412] was tested, and the IC50 [5] was 20.3 ± 0.8 µM and the “Thermal shift ΔTm” value [6] was 1.8 ± 0.08 °C.

In the case of `COc1ccc2cc(-c3nc(CC(=O)NCC(=O)O)cs3)ccc2c1` [SJ46413], the IC50 [5] is reported as 10.3 ± 0.2 µM and the “Thermal shift ΔTm” value [6] is reported as 3.9 ± 0.07 °C.

`O=C(O)CNC(=O)Cc1csc(-c2cccc3cccnc23)n1` [SJ46414] was tested, and the IC50 [5] was 7.1 ± 0.2 µM and the “Thermal shift ΔTm” value [6] was 2.7 ± 0.3 °C.

`O=C(O)CNC(=O)Cc1csc(-c2cccc3ccccc23)n1` [SJ46415] was tested, and the IC50 [5] was 9.8 ± 0.1 µM and the “Thermal shift ΔTm” value [6] was 3.7 ± 0.05 °C.

In the case of `O=C(O)CNC(=O)Cc1csc(-c2ccc3ccccc3c2F)n1` [SJ46416], the IC50 [5] is reported as 1.8 ± 0.1 µM and the “Thermal shift ΔTm” value [6] is reported as 6.0 ± 0.1 °C.

In the case of `COc1ccc2ccc(-c3nc(CC(=O)NCC(=O)O)cs3)cc2c1` [SJ46417], the IC50 [5] is reported as 1.7 ± 0.06 µM and the “Thermal shift ΔTm” value [6] is reported as 4.3 ± 0.1 °C.

For `Cc1sc2c(c1C)C(c1ccc(Cl)cc1)=N[C@@H](CC(=O)N1CCN(CCOc3cccc4ccc(-c5nc(CC(=O)NCC(=O)OCc6ccccc6)cs5)cc34)CC1)c1nnc(C)n1-2` [SJ48087], the remaining activity at 1 µM [1, 9] was 90 ± 4%, the “BRD4 level relative to DMSO (100%)” value ([2]; Fig 6c) was 101 +/- 11% and the “KLHDC2 level relative to DMSO (100%)” value ([3]; 1µM, 24 h, Fig 6c) was 221 +/- 27%. The remaining activity at 1 µM [4, 10] was 89 ± 7.3%.

`Cc1sc2c(c1C)C(c1ccc(Cl)cc1)=N[C@@H](CC(=O)N1CCN(CCOc3cccc4ccc(-c5nc(CC(=O)NCC(=O)OC6CCCC6)cs5)cc34)CC1)c1nnc(C)n1-2` [SJ48088] showed a remaining activity at 1 µM ([1]; U2OS, 24 h, read-out: BRD2 level relative to DMSO (100%), U2OS KO/Rescue, 1µM + co-dosing 1µM MLN4924, 24 h, Fig 6d) of 270 ± 67%, a remaining activity at 1 µM [1, 9] of 83 ± 9.7% and a remaining activity at 1 µM [1, 7] of 78 ± 7.4%. For the same molecule, the remaining activity at 1 µM ([1]; read-out: BRD2 level, Western blot quantification (DMSO = 100), Fig 6c, 1 uM) was 75.6%, the remaining activity at 1 µM ([1]; read-out: BRD2 level, Western blot quantification (DMSO = 100), Fig 6d, 1 uM) was 73.2% and the “BRD4 level … (DMSO = 100)” value ([2]; Fig 6c) was 85.9664 and 71.4338. The “BRD4 level … (DMSO = 100)” value ([2]; Fig 6d) was 72.2613 and 75.636, the “BRD4 level relative to DMSO (100%)” value ([2]; Fig 6c) was 79 +/- 9.6% and the “BRD4 level relative to DMSO (100%)” value ([2]; Fig 6d) was 74 +/- 2.5%. The “KLHDC2 level … (DMSO = 100)” value ([3]; Fig 6c) was 472.526 and 740.895, the “KLHDC2 level … (DMSO = 100)” value ([3]; Fig 6d) was 1961.3 and 1506.23 and the “KLHDC2 level relative to DMSO (100%)” value ([3]; 1µM + co-dosing 1µM MLN4924, 24 h, Fig 6d) was 4837 +/- 513%. The “KLHDC2 level relative to DMSO (100%)” value ([3]; 1µM, 24 h, Fig 6c) was 606 +/- 190%, the “KLHDC2 level relative to DMSO (100%)” value ([3]; 1µM, 24 h, Fig 6d) was 1733 +/- 321% and the remaining activity at 1 µM ([4]; U2OS, 24 h, read-out: BRD3 level relative to DMSO (100%), U2OS KO/Rescue, 1µM + co-dosing 1µM MLN4924, 24 h, Fig 6d) was 120 ± 6.2%. The remaining activity at 1 µM [4, 10] was 46 ± 1.5%, the remaining activity at 1 µM [4, 8] was 24 ± 4.6% and the remaining activity at 1 µM ([4]; read-out: BRD3 level, Western blot quantification (DMSO = 100), Fig 6c, 1 uM) was 47.1%. For the same molecule, the remaining activity at 1 µM ([4]; read-out: BRD3 level, Western blot quantification (DMSO = 100), Fig 6d, 1 uM) was 20.7%.

In the case of `O=C(O)CNC(=O)Cc1csc(-c2ccc3c(c2)NCCO3)n1` [SJ49356], the IC50 [5] is reported as 8.2 ± 0.3 µM and the “Thermal shift ΔTm” value [6] is reported as 1.3 ± 0.5 °C.
